Measurements as given in patent publication US11753407B2, “Compounds for treating spinal muscular atrophy” (PTC Therapeutics, Inc., priority 2012, dated 2023).

What was measured:
[1] = system: SMN2 minigene mRNA (SMN2-A minigene) in HEK293H cells; test: SMN2 minigene mRNA splicing RT-qPCR assay in cultured cells; type: cell-based, human; settings: Homo sapiens, HEK293-H; concentration increasing full length SMN2 mRNA 1.5-fold relative to vehicle-treated cells; HEK293H cells with SMN2-A minigene, 24 hours, 7-point concentration data; read-out: EC1.5x for production of full length SMN2 mRNA
How it was run: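 EC1.5× = concentration raising full-length SMN2 minigene mRNA 1.5-fold over vehicle, from 7-point curves in duplicate. Stably transfected HEK293H cells exposed 24 h at 37 °C; lysates assayed by multiplex RT-qPCR, minigene FL signal normalized to GAPDH via modified ΔΔCt.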

[2] = system: Smn protein in SMA patient fibroblast cells (GM03813); test: Smn protein assay in cultured cells (SMN HTRF); type: cell-based, human; settings: SMA patient fibroblast cells, 48 hours; for EC1.5x for Smn protein expression: 7-point concentration curve, SMN HTRF, concentration producing 1.5 times Smn protein vs DMSO vehicle control; for maximum fold (Fold) increase of Smn protein: 7-point concentration data, fold relative to vehicle control
How it was run: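 Smn protein quantified by HTRF with anti-SMN d2/kryptate pair, 665/620 nm ratio blank-corrected, in RIPA lysates of GM03813 fibroblasts after 48 h compound exposure (7 concentrations, 3.16-fold steps, triplicates). Values: concentration producing 1.5× vehicle Smn level, and maximal fold increase.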

Row | Compound | EC (1.5-fold increase) [1] [µM] | EC1.5x for Smn protein expression [2] | maximum fold (Fold) increase of Smn protein [2] | melting point [°C]
1 | COc1ccc(-c2cc(=O)n3cc(C4=CCNCC4)ccc3n2)cc1F [Compound 186, 2-(3-fluoro-4-methoxyphenyl)-7-(1,2,3,6-tetrahydropyridin-4-yl)-4H-pyrido[1,2-a]pyrimidin-4-one] | < 0.1 | *** (an EC1.5× between >0.3 μM and ≤1 μM is indicated by three stars (***)) | **** (a fold increase between >1.5 and ≤1.65 is indicated by four stars (****)) | 182 to 184
2 | C[C@H]1CN(c2ccc3nc(-c4cc(F)cc(Cl)c4)cc(=O)n3c2)CCN1 [Compound 189, 2-(3-chloro-5-fluorophenyl)-7-[(3S)-3-methylpiperazin-1-yl]-4H-pyrido[1,2-a]pyrimidin-4-one] | 0.3 to 1 | *** (an EC1.5× between >0.3 μM and ≤1 μM is indicated by three stars (***)) | **** (a fold increase between >1.5 and ≤1.65 is indicated by four stars (****)) | 188 to 190
3 | O=c1cc(-c2cc(F)cc(Cl)c2)nc2ccc(N3CCNCC3)cn12 [Compound 190, 2-(3-chloro-5-fluorophenyl)-7-(piperazin-1-yl)-4H-pyrido[1,2-a]pyrimidin-4-one] | 0.3 to 1 | ** (an EC1.5× between >1 μM and ≤3 μM is indicated by two stars (**)) | **** (a fold increase between >1.5 and ≤1.65 is indicated by four stars (****)) | 180 to 184
4 | Cc1nc2ccc(-c3cc(=O)n4cc(N5CCN[C@H](C)C5)ccc4n3)cc2o1 [Compound 193, 2-(2-methyl-1,3-benzoxazol-6-yl)-7-[(3R)-3-methylpiperazin-1-yl]-4H-pyrido[1,2-a]pyrimidin-4-one] | < 0.1 | **** (an EC1.5x≤0.3 μM is indicated by four stars (****)) | ***** (a fold increase >1.65 is indicated by five stars (*****)) | 175 to 177
5 | Cc1nc2ccc(-c3cc(=O)n4cc(N5CCNC(C)(C)C5)ccc4n3)cc2o1 [Compound 194, 7-(3,3-dimethylpiperazin-1-yl)-2-(2-methyl-1,3-benzoxazol-6-yl)-4H-pyrido[1,2-a]pyrimidin-4-one] | < 0.1 | **** (an EC1.5x≤0.3 μM is indicated by four stars (****)) | ***** (a fold increase >1.65 is indicated by five stars (*****)) | 160 to 162
6 | Cc1nc2ccc(-c3cc(=O)n4cc(N5CCCNCC5)ccc4n3)cc2o1 [Compound 195, 7-(1,4-diazepan-1-yl)-2-(2-methyl-1,3-benzoxazol-6-yl)-4H-pyrido[1,2-a]pyrimidin-4-one] | < 0.1 | *** (an EC1.5× between >0.3 μM and ≤1 μM is indicated by three stars (***)) | **** (a fold increase between >1.5 and ≤1.65 is indicated by four stars (****)) | 134 to 137
7 | Cc1nc2ccc(-c3cc(=O)n4cc(N5CCCN(C)CC5)ccc4n3)cc2o1 [Compound 196, 2-(2-methyl-1,3-benzoxazol-6-yl)-7-(4-methyl-1,4-diazepan-1-yl)-4H-pyrido[1,2-a]pyrimidin-4-one] | < 0.1 | **** (an EC1.5x≤0.3 μM is indicated by four stars (****)) | **** (a fold increase between >1.5 and ≤1.65 is indicated by four stars (****)) | 146 to 150
8 | Cc1nc2ccc(-c3cc(=O)n4cc(N5CCN6CCC[C@H]6C5)ccc4n3)cc2o1 [Compound 197, 7-[(8aS)-hexahydropyrrolo[1,2-a]pyrazin-2(1H)-yl]-2-(2-methyl-1,3-benzoxazol-6-yl)-4H-pyrido[1,2-a]pyrimidin-4-one] | 0.1 to 0.3 | **** (an EC1.5x≤0.3 μM is indicated by four stars (****)) | ***** (a fold increase >1.65 is indicated by five stars (*****)) | 214 to 217
9 | Cc1nc2ccc(-c3cc(=O)n4cc(N5CCN6CCC[C@@H]6C5)ccc4n3)cc2o1 [Compound 198, 7-[(8aR)-hexahydropyrrolo[1,2-a]pyrazin-2(1H)-yl]-2-(2-methyl-1,3-benzoxazol-6-yl)-4H-pyrido[1,2-a]pyrimidin-4-one] | < 0.1 | **** (an EC1.5x≤0.3 μM is indicated by four stars (****)) | **** (a fold increase between >1.5 and ≤1.65 is indicated by four stars (****)) | 194 to 199
10 | COc1cnc(-c2cc(=O)n3cc(N4CCNCC4)ccc3n2)cc1OC [Compound 199, 2-(4,5-dimethoxypyridin-2-yl)-7-(piperazin-1-yl)-4H-pyrido[1,2-a]pyrimidin-4-one] | 0.3 to 1 | ** (an EC1.5× between >1 μM and ≤3 μM is indicated by two stars (**)) | **** (a fold increase between >1.5 and ≤1.65 is indicated by four stars (****)) | 207 to 209
11 | COc1ccc(-c2cc(=O)n3cc(N4CCC(N(C)C)C4)ccc3c2)cc1F (centres unmarked) [Compound 200, 7-[3-(dimethylamino)pyrrolidin-1-yl]-2-(3-fluoro-4-methoxyphenyl)-4H-quinolizin-4-one] | 1 to 3 |  | * (A maximum fold increase of ≤1.2 is indicated by one star (*)) | 259 to 261
12 | CCN1CCN(c2ccc3nc(-c4ccc5nc(C)oc5c4)cc(=O)n3c2)CC1 [Compound 202, 7-(4-ethylpiperazin-1-yl)-2-(2-methyl-1,3-benzoxazol-6-yl)-4H-pyrido[1,2-a]pyrimidin-4-one] | 0.3 to 1 |  | ** (a fold increase between >1.2 and ≤1.35 is indicated by two stars (**)) | 212 to 216
13 | COc1ccc(-c2cc(=O)n3cc(C4=CCN(C)CC4)ccc3n2)cc1F [Compound 204, 2-(3-fluoro-4-methoxyphenyl)-7-(1-methyl-1,2,3,6-tetrahydropyridin-4-yl)-4H-pyrido[1,2-a]pyrimidin-4-one] | < 0.1 | **** (an EC1.5x≤0.3 μM is indicated by four stars (****)) | **** (a fold increase between >1.5 and ≤1.65 is indicated by four stars (****)) | 129 to 132
14 | COc1ccc(-c2cc(=O)n3cc(N4CC[C@H](N(C)C)C4)ccc3n2)cc1F [Compound 205, 7-[(3S)-3-(dimethylamino)pyrrolidin-1-yl]-2-(3-fluoro-4-methoxyphenyl)-4H-pyrido[1,2-a]pyrimidin-4-one] | 0.3 to 1 |  | ** (a fold increase between >1.2 and ≤1.35 is indicated by two stars (**)) | 187 to 192
15 | COc1ccc(-c2cc(=O)n3cc(N4C[C@@H](O)[C@H](N(C)C)C4)ccc3n2)cc1F [Compound 206, 7-[(3R,4R)-3-(dimethylamino)-4-hydroxypyrrolidin-1-yl]-2-(3-fluoro-4-methoxyphenyl)-4H-pyrido[1,2-a]pyrimidin-4-one] | 1 to 3 |  | ** (a fold increase between >1.2 and ≤1.35 is indicated by two stars (**)) | 223 to 228
16 | COc1ccc(-c2cc(=O)n3cc(N4CCC(N)CC4)ccc3n2)cc1F [Compound 207, 7-(4-aminopiperidin-1-yl)-2-(3-fluoro-4-methoxyphenyl)-4H-pyrido[1,2-a]pyrimidin-4-one] | < 0.1 |  | *** (a fold increase between >1.35 and ≤1.5 is indicated by three stars (***)) | 173 to 179
17 | CNC1CCN(c2ccc3nc(-c4ccc(OC)c(F)c4)cc(=O)n3c2)CC1 [Compound 208, 2-(3-fluoro-4-methoxyphenyl)-7-[4-(methylamino)piperidin-1-yl]-4H-pyrido[1,2-a]pyrimidin-4-one] | < 0.1 | *** (an EC1.5× between >0.3 μM and ≤1 μM is indicated by three stars (***)) | *** (a fold increase between >1.35 and ≤1.5 is indicated by three stars (***)) | 167 to 171
18 | Cc1cn2cc(-c3cc(=O)n4cc(N5C[C@@H](C)N[C@@H](C)C5)ccc4n3)cc(F)c2n1 [Compound 210, 7-[(3R,5S)-3,5-dimethylpiperazin-1-yl]-2-(8-fluoro-2-methylimidazo[1,2-a]pyridin-6-yl)-4H-pyrido[1,2-a]pyrimidin-4-one] | < 0.1 | **** (an EC1.5x≤0.3 μM is indicated by four stars (****)) | **** (a fold increase between >1.5 and ≤1.65 is indicated by four stars (****)) | 255 to 259
19 | Cc1cn2cc(-c3cc(=O)n4cc(N5CCCN(C)CC5)ccc4n3)cc(F)c2n1 [Compound 211, 2-(8-fluoro-2-methylimidazo[1,2-a]pyridin-6-yl)-7-(4-methyl-1,4-diazepan-1-yl)-4H-pyrido[1,2-a]pyrimidin-4-one] | < 0.1 | **** (an EC1.5x≤0.3 μM is indicated by four stars (****)) | **** (a fold increase between >1.5 and ≤1.65 is indicated by four stars (****)) | 262 to 266
